Test results published in ChEMBL document CHEMBL1133364, “Synthesis and activity of selective MMP inhibitors with an aryl backbone” (Bioorg Med Chem Lett, 2000).

How the values were obtained:
Collagenase 3 = Collagenase 3 (Homo sapiens, UniProt P45452)
[1] = biological target: 72 kDa type IV collagenase (Homo sapiens, UniProt P08253)
Interstitial collagenase = biological target: T1, Interstitial collagenase (Homo sapiens, UniProt P03956); assay: 50 percent inhibition of human Matrix metalloprotease-1 by the cleavage of fluorogenic peptide MCA-Pro-Leu-Gly-Leu-Dpa-ala-Arg-NH2
T1 sequence (P03956 whole entry): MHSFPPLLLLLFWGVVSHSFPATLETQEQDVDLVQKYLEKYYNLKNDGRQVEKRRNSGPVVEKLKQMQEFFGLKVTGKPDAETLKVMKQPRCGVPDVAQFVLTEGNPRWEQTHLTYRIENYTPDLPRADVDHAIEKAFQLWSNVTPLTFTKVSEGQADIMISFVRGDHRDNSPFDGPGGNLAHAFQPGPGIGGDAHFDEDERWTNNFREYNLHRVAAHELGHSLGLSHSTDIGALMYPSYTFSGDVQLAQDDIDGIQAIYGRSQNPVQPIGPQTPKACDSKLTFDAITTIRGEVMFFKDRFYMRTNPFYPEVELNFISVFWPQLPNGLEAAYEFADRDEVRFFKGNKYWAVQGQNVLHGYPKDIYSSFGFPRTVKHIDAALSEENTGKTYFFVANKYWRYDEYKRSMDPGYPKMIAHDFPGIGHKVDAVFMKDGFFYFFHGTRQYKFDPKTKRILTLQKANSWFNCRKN

Sequence of 72 kDa type IV collagenase (P08253 whole entry): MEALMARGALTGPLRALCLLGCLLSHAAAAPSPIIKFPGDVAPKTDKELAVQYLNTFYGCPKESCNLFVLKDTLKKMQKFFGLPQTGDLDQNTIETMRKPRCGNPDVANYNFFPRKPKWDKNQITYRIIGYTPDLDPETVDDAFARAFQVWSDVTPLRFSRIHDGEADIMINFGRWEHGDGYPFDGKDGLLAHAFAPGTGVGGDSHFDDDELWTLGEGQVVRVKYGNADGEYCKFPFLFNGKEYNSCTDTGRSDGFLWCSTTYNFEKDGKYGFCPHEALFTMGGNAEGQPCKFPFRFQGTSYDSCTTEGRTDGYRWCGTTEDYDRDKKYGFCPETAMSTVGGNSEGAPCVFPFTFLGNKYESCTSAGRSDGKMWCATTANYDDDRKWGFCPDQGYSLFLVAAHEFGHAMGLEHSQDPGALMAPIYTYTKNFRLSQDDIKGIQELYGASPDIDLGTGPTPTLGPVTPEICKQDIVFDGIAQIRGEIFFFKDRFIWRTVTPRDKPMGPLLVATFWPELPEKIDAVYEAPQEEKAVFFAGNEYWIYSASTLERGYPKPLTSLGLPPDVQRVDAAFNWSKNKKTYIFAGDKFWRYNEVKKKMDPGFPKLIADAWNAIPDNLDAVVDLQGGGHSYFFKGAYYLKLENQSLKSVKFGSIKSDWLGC

Row | Compound | IC50 (Collagenase 3) [µM] | IC50 [1] [µM] | IC50 (Interstitial collagenase) [µM]
1 | O=C(NO)c1ccccc1S(=O)(=O)N1CCC(c2ccccc2)CC1 | 0.52 | 0.07 | 
2 | O=C(NO)C1(CS(=O)(=O)c2ccc(Oc3ccc(Cl)cc3)cc2)CCOCC1 [CTS-1027] |  |  | 0.8
3 | O=C(NO)c1c(F)cccc1S(=O)(=O)N1CCC(Oc2ccc(C(F)(F)F)cc2)CC1 |  | 0.0033 | 

Results, then the compound that gave them:

Row | IC50 (Collagenase 3) [µM] | IC50 [1] [µM] | IC50 (Interstitial collagenase) [µM] | Compound
4 | 0.028 |  |  | O=C(NO)c1ccccc1S(=O)(=O)N1CCC(Oc2ccc(C(F)(F)F)cc2)CC1
5 |  |  | > 10 | O=C(NO)c1ccccc1S(=O)(=O)N1CCC(Oc2ccc(C(F)(F)F)cc2)C1 (stereo not drawn)
6 |  | 0.002 |  | O=C(NO)c1ccccc1S(=O)(=O)N1CCC(Oc2ccc(OC(F)(F)F)cc2)CC1
7 |  |  | > 10 | COc1ccc(C(=O)NC2CCN(S(=O)(=O)c3ccccc3C(=O)NO)C2)cc1 (single isomer, unassigned; (-))
